Measurements taken from US11572341B2, “Biguanide compound and use thereof” (ImmunoMet Therapeutics Inc., priority 2014, dated 2023).
Counter-ions that a name gives are not always drawn.

Columns and labels:
HCT116 cells = assay: Inhibitory effect against cancer cell proliferation (MTT); format: cell-based, human; details: Homo sapiens, HCT-116; HCT116, MTT, 48 hours; read-out: IC50 (uM) @ HCT116
Method: The formazane crystals thus formed were dissolved using dimethyl sulfoxide (DMSO) and absorbance of the solution was measured at 560 nm. After culturing for 48 hours, […] synthesized in Examples was indicated as cell viability (%) according to each treated concentration.

AMPKa [pT172] = assay: AMPKa activation [pT172] in MCF7 cell; format: cell-based

Row | IC50 (HCT116 cells) | Structure (SMILES) | AMPKa activation [pT172] (Unit/ml) @ MCF7 cell (AMPKa [pT172]; 5 uM) | AMPKa activation [pT172] (Unit/ml) @ MCF7 cell (AMPKa [pT172]; 10 uM) | AMPKa activation [pT172] (Unit/ml) @ MCF7 cell (AMPKa [pT172]; 50 uM)
1 | > 100 µM | CCCN(CC)C(=N)NC(=N)N(CCC)CCC.Cl [Example 7, N1,N1-dipropyl-N5-propyl-N5-ethyl Biguanide Hydrochloride] | 16.2 Unit/ml | 22.3 Unit/ml | 34.6 Unit/ml
2 | > 100 µM | CCCN(CCC)C(=N)NC(=N)N1CCCCC1.Cl [Example 8, N1,N1-dipropyl-N5-piperidine Biguanide Hydrochloride] | 10.8 Unit/ml | 12.5 Unit/ml | 19.3 Unit/ml
3 | > 100 µM | CC(C)(C)N(Cc1ccccc1)C(=N)NC(=N)Nc1ccc(Cl)cc1.Cl [Example 10, N1-(4-chloro)phenyl-N5-t-butyl-N5-benzyl Biguanide Hydrochloride] |  |  | 10.4 Unit/ml
4 | > 100 µM | Cl.N=C(NCc1ccccc1Cl)NC(=N)N1CCCCC1 [Example 12, N1-piperidin-N5-(2-chloro)benzyl Biguanide Hydrochloride] |  |  | 3.1 Unit/ml
5 | > 100 µM | CCCN(CCC)C(=N)NC(=N)N(C1CCCCC1)C1CCCCC1.Cl [Example 15, N1,N1-dipropyl-N5,N5-dicyclohexyl Biguanide Hydrochloride] |  |  | 6.1 Unit/ml
6 | 45.9 µM | CCCN(CCC)C(=N)NC(=N)N(CCC)CCC.Cl [Example 16, N1,N1-dipropyl-N5N-dipropyl Biguanide Hydrochloride] | 7.0 Unit/ml | 9.4 Unit/ml | 13.6 Unit/ml
7 | 35.1 µM | CC(C)NC(=N)NC(=N)Nc1ccc(Cl)cc1.Cl [Example 17, N1-isopropyl-N5-(4-chloro)phenyl Biguanide Hydrochloride] | 10.2 Unit/ml | 10.8 Unit/ml | 55.7 Unit/ml
8 | > 100 µM | CN1CCN(C(=N)NC(=N)NCc2ccc(C(F)(F)F)cc2)CC1.Cl [Example 18, N1-(4-methyl)piperazin-N5-(4-trifluoromethyl)benzyl Biguanide Hydrochloride] | 7.1 Unit/ml | 8.6 Unit/ml | 13.3 Unit/ml
9 | 41.7 µM | CN1CCN(C(=N)NC(=N)Nc2ccc(C(F)(F)F)cc2)CC1.Cl [Example 19, N1-(4-methyl)piperazin-N5-(4-trifluoromethyl)phenyl Biguanide Hydrochloride] | 3.3 Unit/ml | 4.3 Unit/ml | 15.3 Unit/ml
10 | > 100 µM | CN1CCN(C(=N)NC(=N)NCc2cccc(C(F)(F)F)c2)CC1.Cl [Example 20, N1-(4-methyl)piperazin-N5-(3-trifluoromethyl)benzyl Biguanide Hydrochloride] | 2.9 Unit/ml | 4.5 Unit/ml | 5.6 Unit/ml
11 | 43.2 µM | CN1CCN(C(=N)NC(=N)Nc2cccc(C(F)(F)F)c2)CC1.Cl [Example 21, N1-(4-methyl)piperazin-N5-(3-trifluoromethyl)phenyl Biguanide Hydrochloride] | 6.0 Unit/ml | 5.8 Unit/ml | 14.8 Unit/ml
12 | 35.2 µM | CN1CCN(C(=N)NC(=N)Nc2cccc(OC(F)(F)F)c2)CC1.Cl [Example 22, N1-(4-methyl)piperazin-N5-(3-trifluoromethoxy)phenyl Biguanide Hydrochloride] | 3.8 Unit/ml | 10.1 Unit/ml | 22.3 Unit/ml
13 | 12.7 µM | CCOC1CCN(C(=N)NC(=N)Nc2ccc(C(F)(F)F)cc2)CC1.Cl [Example 23, N1-(4-ethoxy)piperidin-N5-(4-trifluoromethyl)phenyl Biguanide Hydrochloride] | 7.7 Unit/ml | 6.6 Unit/ml | cell death
14 | 11.5 µM | CCOC1CCN(C(=N)NC(=N)Nc2cccc(C(F)(F)F)c2)CC1.Cl [Example 24, N1-(4-ethoxy)piperidin-N5-(3-trifluoromethyl)phenyl Biguanide Hydrochloride] | 5.2 Unit/ml | 4.7 Unit/ml | cell death
15 | 9.7 µM | CCOC1CCN(C(=N)NC(=N)Nc2ccc(OC(F)(F)F)cc2)CC1.Cl [Example 26, N1-(4-ethoxy)piperidin-N5-(4-trifluoromethoxy)phenyl Biguanide Hydrochloride] | 3.6 Unit/ml | 6.6 Unit/ml | cell death
16 | > 100 µM | CN1CCN(C(=N)NC(=N)Nc2cccc(F)c2)CC1.Cl [Example 28, N1-(4-methyl)piperazin-N5-(3-fluoro)phenyl Biguanide Hydrochloride] | 7.7 Unit/ml | 9.2 Unit/ml | 7.9 Unit/ml
17 | > 100 µM | CN1CCN(C(=N)NC(=N)Nc2cccc(Cl)c2)CC1.Cl [Example 29, N1-(4-methyl)piperazin-N5-(3-chloro)phenyl Biguanide Hydrochloride] | 4.0 Unit/ml | 5.4 Unit/ml | 6.8 Unit/ml
18 | > 100 µM | CN1CCN(C(=N)NC(=N)Nc2ccccc2Cl)CC1.Cl [Example 30, N1-(4-methyl)piperazin-N5-(2-chloro)phenyl Biguanide Hydrochloride] | 4.2 Unit/ml | 4.0 Unit/ml | 4.2 Unit/ml
19 | > 100 µM | CN1CCN(C(=N)NC(=N)NCc2ccc(Cl)cc2)CC1.Cl [Example 31, N1-(4-methyl)piperazin-N5-(4-chloro)benzyl Biguanide Hydrochloride] | 2.5 Unit/ml | 3.6 Unit/ml | 6.1 Unit/ml
20 | > 100 µM | CN1CCN(C(=N)NC(=N)NCc2ccccc2Cl)CC1.Cl [Example 32, N1-(4-methyl)piperazin-N5-(2-chloro)benzyl Biguanide Hydrochloride] | 5.5 Unit/ml | 5.2 Unit/ml | 5.3 Unit/ml
21 | 7.5 µM | C/N=C(\NCCc1ccccc1)NC(=N)N(C)C [Example 97, N1-phenethyl-N2-methyl-N5,N5-dimethyl Biguanide Hydrochloride] |  |  | 
22 | > 100 µM | Cl.N=C(N)NC(=N)N1CCOCC1 [Example 118, Hydrochloride] |  |  | 
23 | 100 µM | Cl.N=C(N)NC(=N)Nc1ccc(OC(F)(F)F)cc1 [Example 140, Hydrochloride] |  |  | 
